Measured values published in US12240839B2, “Cyclobutyl dihydroquinoline sulfonamide compounds” (AMGEN INC., priority 2020, dated 2025).

These compounds were tested on CYP3A4 (assay: Human CYP3A4 induction assay (mRNA, cryopreserved human hepatocytes)). Details: 10 uM test compound, 72 hours, percent of control (rifampin positive control).
Method: Human CYP3A4 Induction Assay
Cryopreserved human hepatocytes were seeded in 96-well collagen coated plates at 70,000 cells per well in hepatocyte plating media (HPM, final concentrations: 1× Dulbecco's Modified Eagle's Medium, 0.1 μM dexamethasone, 10% fetal bovine serum, 1×ITS, 1×PSG) followed by incubation at 37° C. under 5% CO2 and 90% relative humidity for 2 days to allow hepatocytes to form a confluent layer. On Day 3, hepatocytes were treated with either test compound or rifampin (20 μM, positive control for CYP3A induction) prepared in hepatocyte incubation media ((HIM, final concentrations: 1× William's Medium E, 0.1 μM dexamethasone, 1×ITS, 1×PSG). Treatment was performed for 72 hours with either 2 concentrations (2 μM or 10 μM) or a range of concentrations (0.001 μM to 100 μM) of the test compound to obtain full dose-response curve. Fresh media containing the relevant concentrations of the test compound was replaced every day until the samples were processed. After 72 hours of incubation, samples were processed for mRNA analysis using bDNA technology using manufacturer's instructions (Affymetrix, Fremont, CA). Cell viability was tested at the end of the experiment using MTT assay kit (Roche Diagnostics, Basel, Switzerland). Data was analyzed and presented as percent of control (POC) and Emax and EC50 obtained when appropriate according to guidance from Center for Drug Evaluation and Research (CDER), 2006, Guidance for Industry, Drug Interaction Studies—Study Design, Data Analysis, and Implications for Dosing and Labeling.

Compound | Hu CYP3A4 mRNA Induction (10 uM POC) [%]
COc1cc(C2CC(F)(F)C2)c(F)cc1-n1c(=O)ccc2cc(S(=O)(=O)Nc3ccon3)ccc21 (atropisomer, axis not shown; (P)) [Example 4, (P)-1-(4-(3,3-difluorocyclobutyl)-5-fluoro-2-methoxyphenyl)-N-(isoxazol-3-yl)-2-oxo-1,2-dihydroquinoline-6-sulfonamide] | 14.71
COc1cc([C@H]2C[C@](F)(C(F)(F)F)C2)c(Cl)cc1-n1c(=O)ccc2cc(S(=O)(=O)Nc3ccon3)ccc21 (atropisomer, axis not shown; (P)) [Example 10, cis-(P)-1-(5-chloro-4-(3-fluoro-3-(trifluoromethyl)cyclobutyl)-2-methoxyphenyl)-N-(isoxazol-3-yl)-2-oxo-1,2-dihydroquinoline-6-sulfonamide] | 5.66
COc1cc([C@H]2C[C@@](F)(C(F)(F)F)C2)c(Cl)cc1-n1c(=O)ccc2cc(S(=O)(=O)Nc3ccon3)ccc21 (atropisomer, axis not shown; (P)) [Example 11, trans-(P)-1-(5-chloro-4-(3-fluoro-3-(trifluoromethyl)cyclobutyl)-2-methoxyphenyl)-N-(isoxazol-3-yl)-2-oxo-1,2-dihydroquinoline-6-sulfonamide] | 7.29
COc1cc(C2CCC2)c(F)cc1-n1c(=O)ccc2cc(S(=O)(=O)Nc3ccon3)ccc21 (atropisomer, axis not shown; (P)) [Example 14, (P)-1-(4-cyclobutyl-5-fluoro-2-methoxyphenyl)-N-(isoxazol-3-yl)-2-oxo-1,2-dihydroquinoline-6-sulfonamide] | 18.3
COc1cc([C@H]2C[C@H](C(F)(F)F)C2)c(F)cc1-n1c(=O)ccc2cc(S(=O)(=O)Nc3ncccn3)ccc21 (atropisomer, axis not shown; (P)) [Example 15, trans-(P)-1-(5-fluoro-2-methoxy-4-(3-(trifluoromethyl)cyclobutyl)phenyl)-2-oxo-N-(pyrimidin-2-yl)-1,2-dihydroquinoline-6-sulfonamide] | 36
COc1cc([C@H]2C[C@@H](C(F)(F)F)C2)c(Cl)cc1-n1c(=O)ccc2cc(S(=O)(=O)Nc3ncccn3)ccc21 (atropisomer, axis not shown; (P)) [Example 16, cis-(P)-1-(5-chloro-2-methoxy-4-(3-(trifluoromethyl)cyclobutyl)phenyl)-2-oxo-N-(pyrimidin-2-yl)-1,2-dihydroquinoline-6-sulfonamide] | 130.1
COc1cc([C@H]2C[C@H](C(F)(F)F)C2)c(Cl)cc1-n1c(=O)ccc2cc(S(=O)(=O)Nc3ncccn3)ccc21 (atropisomer, axis not shown; (P)) [Example 17, trans-(P)-1-(5-chloro-2-methoxy-4-(3-(trifluoromethyl)cyclobutyl)phenyl)-2-oxo-N-(pyrimidin-2-yl)-1,2-dihydroquinoline-6-sulfonamide] | 61.91
COc1cc(C2CCC2)c(Cl)cc1-n1c(=O)ccc2cc(S(=O)(=O)Nc3ncccn3)ccc21 (atropisomer, axis not shown; (P)) [Example 18, (P)-1-(5-chloro-4-cyclobutyl-2-methoxyphenyl)-2-oxo-N-(pyrimidin-2-yl)-1,2-dihydroquinoline-6-sulfonamide] | 20.78
COc1cc([C@H]2C[C@H](C(F)(F)F)C2)c(Cl)cc1-n1c(=O)ccc2cc(S(=O)(=O)Nc3cccnn3)ccc21 (atropisomer, axis not shown; (P)) [Example 19, trans-(P)-1-(5-chloro-2-methoxy-4-(3-(trifluoromethyl)cyclobutyl)phenyl)-2-oxo-N-(pyridazin-3-yl)-1,2-dihydroquinoline-6-sulfonamide] | 60.73
COc1cc([C@H]2C[C@H](C(F)(F)F)C2)c(C)cc1-n1c(=O)ccc2cc(S(=O)(=O)Nc3ccon3)ccc21 (atropisomer, axis not shown; (P)) [Example 20, trans-(P)—N-(isoxazol-3-yl)-1-(2-methoxy-5-methyl-4-(3-(trifluoromethyl)cyclobutyl)phenyl)-2-oxo-1,2-dihydroquinoline-6-sulfonamide] | 42.22
COc1cc(C2CCC2)c(Cl)cc1-n1c(=O)ccc2cc(S(=O)(=O)Nc3ccon3)ccc21 (atropisomer, axis not shown; (P)) [Example 21, (P)-1-(5-chloro-4-cyclobutyl-2-methoxyphenyl)-N-(isoxazol-3-yl)-2-oxo-1,2-dihydroquinoline-6-sulfonamide] | 17.07
COc1cc(C2CCC2)c(C)cc1-n1c(=O)ccc2cc(S(=O)(=O)Nc3ccon3)ccc21 (atropisomer, axis not shown; (P)) [Example 22, (P)-1-(4-cyclobutyl-2-methoxy-5-methylphenyl)-N-(isoxazol-3-yl)-2-oxo-1,2-dihydroquinoline-6-sulfonamide] | 24.14
COc1cc(C2CCC2)c(F)cc1-n1c(=O)ccc2cc(S(=O)(=O)Nc3cccnn3)ccc21 (atropisomer, axis not shown; (P)) [Example 23, (P)-1-(4-cyclobutyl-5-fluoro-2-methoxyphenyl)-2-oxo-N-(pyridazin-3-yl)-1,2-dihydroquinoline-6-sulfonamide] | 14.37
COc1cc(C2CCC2)c(F)cc1-n1c(=O)ccc2cc(S(=O)(=O)Nc3ncco3)ccc21 (atropisomer, axis not shown; (P)) [Example 24, (P)-1-(4-cyclobutyl-5-fluoro-2-methoxyphenyl)-N-(oxazol-2-yl)-2-oxo-1,2-dihydroquinoline-6-sulfonamide] | 89.26
COc1cc(C2CCC2)ccc1-n1c(=O)ccc2cc(S(=O)(=O)Nc3ccon3)ccc21 (atropisomer, axis not shown; (P)) [Example 25, (P)-1-(4-cyclobutyl-2-methoxyphenyl)-N-(isoxazol-3-yl)-2-oxo-1,2-dihydroquinoline-6-sulfonamide] | 18.57
COc1cc(C2CCC2)ccc1-n1c(=O)ccc2cc(S(=O)(=O)Nc3ncccn3)ccc21 (atropisomer, axis not shown; (P)) [Example 26, (P)-1-(4-cyclobutyl-2-methoxyphenyl)-2-oxo-N-(pyrimidin-2-yl)-1,2-dihydroquinoline-6-sulfonamide] | 14.58
COc1cc(C2CCC2)c(C)cc1-n1c(=O)ccc2cc(S(=O)(=O)Nc3ncccn3)ccc21 (atropisomer, axis not shown; (P)) [Example 27, (P)-1-(4-Cyclobutyl-2-Methoxy-5-Methylphenyl)-2-Oxo-N-(Pyrimidin-2-Yl)-1,2-Dihydroquinoline-6-Sulfonamide] | 48.14
COc1cc(C2CCC2)c(F)cc1-n1c(=O)ccc2cc(S(=O)(=O)Nc3ncccn3)ccc21 (atropisomer, axis not shown; (P)) [Example 28, (P)-1-(4-cyclobutyl-5-fluoro-2-methoxyphenyl)-2-oxo-N-(pyrimidin-2-yl)-1,2-dihydroquinoline-6-sulfonamide] | 60.29
